Source: US8449898B2 (priority 2007, dated 2013)
Read-outs that look alike come from different tables or passages of the source.

Legend:
[1] = system: Pseudoperonospora cubensis (the causal agent of cucumber downy mildew); assay: Test B: cucumber downy mildew, preventive spray on cucumber seedlings; format: in vivo; conditions: for pest or weed control at 0.4 ppm / pest or weed control at 2 ppm / pest or weed control at 10 ppm / pest or weed control at 40 ppm / pest or weed control at 200 ppm / pest or weed control at 0.4 µg/mL / pest or weed control at 2 µg/mL / pest or weed control at 10 µg/mL / pest or weed control at 40 µg/mL / pest or weed control at 200 µg/mL / pest or weed control at 0.04 ppm: Pseudoperonospora cubensis; for CDM Obsd (disease control rating): Table B
[2] = system: Phytophthora infestans (the causal agent of tomato late blight); assay: whole plant or invertebrate; format: in vivo; conditions: for pest or weed control at 0.4 ppm / pest or weed control at 2 ppm / pest or weed control at 10 ppm / pest or weed control at 40 ppm / pest or weed control at 200 ppm / pest or weed control at 0.04 ppm: Phytophthora infestans; for TLB Obsd: Table D; for TLB Obsd (observed effect, tomato late blight): component (b) alone; for TLB Obsd (disease control rating): Table B
[3] = Table C, component (b) alone 0.4 ppm, read-out: CDM Obsd (disease control rating)
[4] = Table C, component (b) alone 2 ppm, read-out: CDM Obsd (disease control rating)
[5] = Table C, component (b) alone 10 ppm, read-out: CDM Obsd (disease control rating)
[6] = Table C, component (b) alone 40 ppm, read-out: CDM Obsd (disease control rating)
[7] = Table C, component (b) alone 200 ppm, read-out: CDM Obsd (disease control rating)
[8] = component (b) alone 0.4 ppm (Compound 1 0 ppm), read-out: CDM Obsd
[9] = component (b) alone 2 ppm (Compound 1 0 ppm), read-out: CDM Obsd
[10] = component (b) alone 10 ppm (Compound 1 0 ppm), read-out: CDM Obsd
[11] = component (b) alone 40 ppm (Compound 1 0 ppm), read-out: CDM Obsd
[12] = component (b) alone 200 ppm (Compound 1 0 ppm), read-out: CDM Obsd
[13] = read-out: TLB Obsd (disease control rating), Table C, component (b) alone 0.4 ppm
[14] = read-out: TLB Obsd (disease control rating), Table C, component (b) alone 2 ppm
[15] = read-out: TLB Obsd (disease control rating), Table C, component (b) alone 10 ppm
[16] = read-out: TLB Obsd (disease control rating), Table C, component (b) alone 40 ppm
[17] = read-out: TLB Obsd (disease control rating), Table C, component (b) alone 200 ppm
[18] = component (b) alone 10 ppm (Compound 1 0 ppm)
[19] = component (b) alone 40 ppm (Compound 1 0 ppm)

Work on `O=C1c2ccccc2C(=O)N1SC(Cl)(Cl)Cl` [folpet] yielded a pest or weed control at 0.4 ppm [1, 3] of 47%, a pest or weed control at 2 ppm [1, 4] of 47% and a pest or weed control at 10 ppm [1, 5] of 47%. It also gave a pest or weed control at 40 ppm [1, 6] of 92%, a pest or weed control at 200 ppm [1, 7] of 95% and a pest or weed control at 0.4 µg/mL [1, 8] of 47%. The pest or weed control at 2 µg/mL [1, 9] was 47%, the pest or weed control at 10 µg/mL [1, 10] was 47% and the pest or weed control at 40 µg/mL [1, 11] was 47%. For the same molecule, the pest or weed control at 200 µg/mL [1, 12] was 88%, the pest or weed control at 0.04 ppm ([1]; component (b) alone, read-out: CDM Obsd (observed effect, cucumber downy mildew)) was 0% and the pest or weed control at 2 ppm ([1]; component (b) alone, 2 ppm, read-out: CDM Obsd (observed effect, cucumber downy mildew)) was 0%. For the same molecule, the pest or weed control at 10 ppm ([1]; component (b) alone, 10 ppm, read-out: CDM Obsd (observed effect, cucumber downy mildew)) was 44%, the pest or weed control at 40 ppm ([1]; component (b) alone, 40 ppm, read-out: CDM Obsd (observed effect, cucumber downy mildew)) was 74% and the pest or weed control at 200 ppm ([1]; component (b) alone, 200 ppm, read-out: CDM Obsd (observed effect, cucumber downy mildew)) was 87%. For the same molecule, the pest or weed control at 0.4 ppm [2, 13] was 0%, the pest or weed control at 2 ppm [2, 14] was 9% and the pest or weed control at 10 ppm [2, 15] was 9%. The pest or weed control at 40 ppm [2, 16] was 24%, the pest or weed control at 200 ppm [2, 17] was 75% and the pest or weed control at 0.04 ppm ([2]; read-out: TLB Obsd (observed effect, tomato late blight), component (b) alone, 0.04 ppm) was 0%. The pest or weed control at 2 ppm ([2]; read-out: TLB Obsd (observed effect, tomato late blight), component (b) alone, 2 ppm) was 8%, the pest or weed control at 10 ppm ([2]; read-out: TLB Obsd (observed effect, tomato late blight), component (b) alone, 10 ppm) was 31% and the pest or weed control at 40 ppm ([2]; read-out: TLB Obsd (observed effect, tomato late blight), component (b) alone, 40 ppm) was 46%. For the same molecule, the pest or weed control at 200 ppm ([2]; read-out: TLB Obsd (observed effect, tomato late blight), component (b) alone, 200 ppm) was 93%.
For `CCO[PH](=O)O` [fosetyl-aluminum], the “CDM Obsd” value ([1]; Table D, component (b) alone at 10 ppm) was 47%, the “CDM Obsd” value ([1]; Table D, component (b) alone at 40 ppm) was 47% and the “CDM Obsd” value ([1]; Table D, component (b) alone at 200 ppm) was 47%. For the same molecule, the “CDM Obsd” value ([1]; Table D, component (b) alone at 1000 ppm) was 98%, the “CDM Obsd” value ([1]; Table D, component (b) alone at 2000 ppm) was 100% and the “CDM Obsd” value [1, 18] was 47%. For the same molecule, the “CDM Obsd” value [1, 19] was 47%, the “CDM Obsd” value ([1]; component (b) alone 200 ppm (Compound 1 0 ppm)) was 63% and the “CDM Obsd” value ([1]; component (b) alone 1000 ppm (Compound 1 0 ppm)) was 98%. For the same molecule, the “CDM Obsd” value ([1]; component (b) alone 2000 ppm (Compound 1 0 ppm)) was 100%, the “CDM Obsd (observed effect, cucumber downy mildew)” value ([1]; component (b) alone, 10 ppm) was 0 and the “CDM Obsd (observed effect, cucumber downy mildew)” value ([1]; component (b) alone, 40 ppm) was 0. For the same molecule, the “CDM Obsd (observed effect, cucumber downy mildew)” value ([1]; component (b) alone, 200 ppm) was 0, the “CDM Obsd (observed effect, cucumber downy mildew)” value ([1]; component (b) alone, 1000 ppm) was 68 and the “CDM Obsd (observed effect, cucumber downy mildew)” value ([1]; component (b) alone, 2000 ppm) was 73. The “TLB Obsd” value ([2]; component (b) alone at 10 ppm) was 0%, the “TLB Obsd” value ([2]; component (b) alone at 40 ppm) was 20% and the “TLB Obsd” value ([2]; component (b) alone at 200 ppm) was 65%. The “TLB Obsd” value ([2]; component (b) alone at 1000 ppm) was 97%, the “TLB Obsd” value ([2]; component (b) alone at 2000 ppm) was 100% and the “TLB Obsd (observed effect, tomato late blight)” value ([2]; 10 ppm) was 0. For the same molecule, the “TLB Obsd (observed effect, tomato late blight)” value ([2]; 40 ppm) was 0, the “TLB Obsd (observed effect, tomato late blight)” value ([2]; 200 ppm) was 50 and the “TLB Obsd (observed effect, tomato late blight)” value ([2]; 1000 ppm) was 99. For the same molecule, the “TLB Obsd (observed effect, tomato late blight)” value ([2]; 2000 ppm) was 100.
With `Cc1ccc(C(C)NC(=O)[C@@H](NC(=O)OC(C)C)C(C)C)cc1` (stereo partly shown) [iprovalicarb] the “CDM Obsd (disease control rating)” value ([1]; component (b) alone 0.08 ppm) was 47%, the “CDM Obsd (disease control rating)” value ([1]; component (b) alone 0.4 ppm) was 57% and the “CDM Obsd (disease control rating)” value ([1]; component (b) alone 2 ppm) was 77%. The “CDM Obsd (disease control rating)” value ([1]; component (b) alone 10 ppm) was 100%, the “CDM Obsd (disease control rating)” value ([1]; component (b) alone 40 ppm) was 100% and the “CDM Obsd” value ([1]; component (b) alone 0.08 ppm (Compound 1 0 ppm)) was 26%. For the same molecule, the “CDM Obsd” value ([1]; component (b) alone 0.4 ppm (Compound 1 0 ppm)) was 26%, the “CDM Obsd” value ([1]; component (b) alone 2 ppm (Compound 1 0 ppm)) was 26% and the “CDM Obsd” value [1, 18] was 88%. For the same molecule, the “CDM Obsd” value [1, 19] was 100%, the “CDM Obsd (observed effect, cucumber downy mildew)” value ([1]; component (b) alone, 0.08 ppm) was 0 and the “CDM Obsd (observed effect, cucumber downy mildew)” value ([1]; component (b) alone, 0.4 ppm) was 0. The “CDM Obsd (observed effect, cucumber downy mildew)” value ([1]; component (b) alone, 2 ppm) was 0, the “CDM Obsd (observed effect, cucumber downy mildew)” value ([1]; component (b) alone, 10 ppm) was 99 and the “CDM Obsd (observed effect, cucumber downy mildew)” value ([1]; component (b) alone, 40 ppm) was 100. The “TLB Obsd (disease control rating)” value ([2]; component (b) alone 0.08 ppm) was 0%, the “TLB Obsd (disease control rating)” value ([2]; component (b) alone 0.4 ppm) was 9% and the “TLB Obsd (disease control rating)” value ([2]; component (b) alone 2 ppm) was 39%. For the same molecule, the “TLB Obsd (disease control rating)” value ([2]; component (b) alone 10 ppm) was 99%, the “TLB Obsd (disease control rating)” value ([2]; component (b) alone 40 ppm) was 100% and the “TLB Obsd (observed effect, tomato late blight)” value ([2]; 0.08 ppm) was 0. The “TLB Obsd (observed effect, tomato late blight)” value ([2]; 0.4 ppm) was 21, the “TLB Obsd (observed effect, tomato late blight)” value ([2]; 2 ppm) was 74 and the “TLB Obsd (observed effect, tomato late blight)” value ([2]; 10 ppm) was 98. For the same molecule, the “TLB Obsd (observed effect, tomato late blight)” value ([2]; 40 ppm) was 100.
`CO/N=C(/C(=O)OC)c1ccccc1COc1ccccc1C` [kresoxim-methyl] showed a pest or weed control at 0.4 ppm [1, 3] of 47%, a pest or weed control at 2 ppm [1, 4] of 47% and a pest or weed control at 10 ppm [1, 5] of 53%. The pest or weed control at 40 ppm [1, 6] was 57%, the pest or weed control at 200 ppm [1, 7] was 100% and the pest or weed control at 0.4 µg/mL [1, 8] was 47%. It also gave a pest or weed control at 2 µg/mL [1, 9] of 47%, a pest or weed control at 10 µg/mL [1, 10] of 47% and a pest or weed control at 40 µg/mL [1, 11] of 99%. It also gave a pest or weed control at 200 µg/mL [1, 12] of 100%, a pest or weed control at 0.04 ppm ([1]; component (b) alone, read-out: CDM Obsd) of 9% and a pest or weed control at 2 ppm ([1]; component (b) alone, 2 ppm, read-out: CDM Obsd) of 9%. It also gave a pest or weed control at 10 ppm ([1]; component (b) alone, 10 ppm, read-out: CDM Obsd) of 30%, a pest or weed control at 40 ppm ([1]; component (b) alone, 40 ppm, read-out: CDM Obsd) of 37% and a pest or weed control at 200 ppm ([1]; component (b) alone, 200 ppm, read-out: CDM Obsd) of 100%. It also gave a pest or weed control at 0.4 ppm [2, 13] of 9%, a pest or weed control at 2 ppm [2, 14] of 33% and a pest or weed control at 10 ppm [2, 15] of 80%. For the same molecule, the pest or weed control at 40 ppm [2, 16] was 99%, the pest or weed control at 200 ppm [2, 17] was 99% and the pest or weed control at 0.04 ppm ([2]; read-out: TLB Obsd, component (b) alone, 0.04 ppm) was 8%. The pest or weed control at 2 ppm ([2]; read-out: TLB Obsd, component (b) alone, 2 ppm) was 32%, the pest or weed control at 10 ppm ([2]; read-out: TLB Obsd, component (b) alone, 10 ppm) was 86% and the pest or weed control at 40 ppm ([2]; read-out: TLB Obsd, component (b) alone, 40 ppm) was 96%. For the same molecule, the pest or weed control at 200 ppm ([2]; read-out: TLB Obsd, component (b) alone, 200 ppm) was 100%.
